Reference: the supplement of paper PMC11451515

Tested on: P12-Ichikawa
Test: cell viability relative to DMSO control; higher = less cytotoxic
Settings: 48 h
How it was run: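 NOMO1 or SEM cells were plated at 500 cells/well and P12-Ichikawa cells at 1000 cells/well in 1536-well plates (5 μl), after each leukemia line had been adapted for at least four passages in each medium. Pin dosing delivered library compounds in DMSO at 11 threefold concentrations, 47 μM to 0.79 nM. CellTiter-Glo One luminescence was read after 48 h at 37°C. Viability is reported as a per-plate percentage of DMSO wells, with cell-free wells as background.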

[1] = HPLM + 10% dialyzed FBS, 0.000781 µM
[2] = HPLM + 10% dialyzed FBS, 0.00234 µM
[3] = HPLM + 10% dialyzed FBS, 0.00702 µM
[4] = HPLM + 10% dialyzed FBS, 0.0211 µM
[5] = HPLM + 10% dialyzed FBS, 0.0632 µM
[6] = HPLM + 10% dialyzed FBS, 0.19 µM
[7] = HPLM + 10% dialyzed FBS, 0.569 µM
[8] = HPLM + 10% dialyzed FBS, 1.71 µM
[9] = HPLM + 10% dialyzed FBS, 5.12 µM
[10] = HPLM + 10% dialyzed FBS, 15.4 µM
[11] = HPLM + 10% dialyzed FBS, 46.1 µM
[12] = RPMI 5 mM glucose + 10% FBS, 0.000781 µM
[13] = RPMI 5 mM glucose + 10% FBS, 0.00234 µM
[14] = RPMI 5 mM glucose + 10% FBS, 0.00702 µM
[15] = RPMI 5 mM glucose + 10% FBS, 0.0211 µM
[16] = RPMI 5 mM glucose + 10% FBS, 0.0632 µM
[17] = RPMI 5 mM glucose + 10% FBS, 0.19 µM
[18] = RPMI 5 mM glucose + 10% FBS, 0.569 µM
[19] = RPMI 5 mM glucose + 10% FBS, 1.71 µM
[20] = RPMI 5 mM glucose + 10% FBS, 5.12 µM
[21] = RPMI 5 mM glucose + 10% FBS, 15.4 µM
[22] = RPMI 5 mM glucose + 10% FBS, 46.1 µM
[23] = RPMI 5 mM glucose + 10% dialyzed FBS, 0.000781 µM
[24] = RPMI 5 mM glucose + 10% dialyzed FBS, 0.00234 µM
[25] = RPMI 5 mM glucose + 10% dialyzed FBS, 0.00702 µM
[26] = RPMI 5 mM glucose + 10% dialyzed FBS, 0.0211 µM
[27] = RPMI 5 mM glucose + 10% dialyzed FBS, 0.0632 µM
[28] = RPMI 5 mM glucose + 10% dialyzed FBS, 0.19 µM
[29] = RPMI 5 mM glucose + 10% dialyzed FBS, 0.569 µM
[30] = RPMI 5 mM glucose + 10% dialyzed FBS, 1.71 µM
[31] = RPMI 5 mM glucose + 10% dialyzed FBS, 5.12 µM
[32] = RPMI 5 mM glucose + 10% dialyzed FBS, 15.4 µM
[33] = RPMI 5 mM glucose + 10% dialyzed FBS, 46.1 µM

SMILES	cell viability [1] [%]	cell viability [2] [%]	cell viability [3] [%]	cell viability [4] [%]	cell viability [5] [%]	cell viability [6] [%]	cell viability [7] [%]	cell viability [8] [%]	cell viability [9] [%]	cell viability [10] [%]	cell viability [11] [%]	cell viability [12] [%]	cell viability [13] [%]	cell viability [14] [%]	cell viability [15] [%]	cell viability [16] [%]	cell viability [17] [%]	cell viability [18] [%]	cell viability [19] [%]	cell viability [20] [%]	cell viability [21] [%]	cell viability [22] [%]	cell viability [23] [%]	cell viability [24] [%]	cell viability [25] [%]	cell viability [26] [%]	cell viability [27] [%]	cell viability [28] [%]	cell viability [29] [%]	cell viability [30] [%]	cell viability [31] [%]	cell viability [32] [%]	cell viability [33] [%]
CN[C@@H]1C[C@H]2O[C@@](C)([C@@H]1OC)n1c3ccccc3c3c4c(c5c6ccccc6n2c5c31)C(=O)N[C@H]4O	80.5	86.5	85.5	89.3	84.7	75.9	63.7	22.5	16.8	23.2	7.88	80	78	83.8	84.2	78.4	63.4	44.5	12.8	12.8	14.8	15	84.7	90.4	85.9	85.8	81.2	55.4	62	29	14	17.7	11.5
Cc1cc(Cl)ccc1OCCCC(=O)NO	102	105	105	116	106	105	101	98.6	78.3	15	3.84	97.8	102	108	110	101	98.2	99.4	81.2	57.9	17.4	3.91	113	104	108	111	111	102	100	35.9	37.2	5.67	3.42
Cc1ccc(C(=O)c2cc(O)c(O)c([N+](=O)[O-])c2)cc1	93.6	93.5	95.5	103	101	104	104	102	90.9	101	105	90.2	88.2	85.9	85.8	102	103	95.1	94.6	84.3	102	102	82.5	93.4	95	91.8	89.3	93.6	99.2	91	84.7	89.5	91.4
CCCCCCCCc1ccc(CCC(N)(CO)CO)cc1	113	111	113	104	108	112	101	107	76.1	84.1	7.48	118	114	113	114	119	115	104	101	80.8	60	3.8	105	110	112	109	103	111	90.2	114	87.2	68	3.18
Cc1[nH]c(/C=C2\C(=O)Nc3ccc([S+](=O)([O-])Cc4c(Cl)cccc4Cl)cc32)c(C)c1C(=O)N1CCC[C@@H]1CN1CCCC1	105	108	99.7	101	98.8	111	108	97.9	91.5	87.4	78.3	99.4	103	105	99.7	94.6	95.3	107	98.4	81.5	85.5	84.4	98	95.8	93.7	101	99	102	95	91.6	69.5	78.1	53
NC\1=N\C(=O)N(\C=C1)[C@H]\2[C@H](O)[C@H](O)C(=C2F)\CO	95.2	106	104	105	105	106	104	60	28	19.3	16.5	89.4	96.8	96.3	106	103	114	101	95.7	47.8	29.1	16.9	91.8	114	114	116	115	108	100	89.4	67.9	23.4	11.4
CN(C)c1ccc2cc(C(=O)N[C@@H](CCCNC(=N)CCl)C(=O)NCc3ccccc3)ccc2c1	103	113	105	113	112	103	108	107	104	93.9	19	121	111	97.9	115	106	116	122	116	104	93	9.92	109	108	108	109	110	101	99.6	97.1	106	92	8.85
N[C@@H](CC(=O)N1CCn2c(nnc2C(F)(F)F)C1)Cc1cc(F)c(F)cc1F	100	105	104	113	109	104	102	103	98.2	97	94.7	91	103	97.3	95.8	99.2	99.7	92.8		95.4	89.5	88.3	98.4	94.5	97.3	100	100	84.9	90.9	89.4	91.4	91.3	88
Nc1nc(OCc2ccccc2)c2nc[nH]c2n1	108	110	117	115	120	120	120	118	114	112	113	97.9	107	120	117	124	111	114	118	120	120	111	105	114	119	117	121	117	122	120	121	120	119
C[S+]([O-])c1ccc(-c2nc(-c3ccc(F)cc3)c(-c3ccncc3)[nH]2)cc1 (centres undefined)	103	102	97.3	111	109	108	107	93.6	53.5	3.78	1.78	93.8	92.2	103	99	102	92.8	102	64.2	46.6	3.17	1.83	96.6	103	99.7	97.3	98.7	99.4	98.6	74.2	45.4	3.69	2.1
CN(C)CCN(Cc1ccc(Cl)cc1)c1ccccn1.Cl	89	97.1	95.9	97.1	96.9	94.9	97.5	101	95.2	96.4	101	80.3	80.4	85.4	95.1	80.5	87.9	90.4	87.7	90.4	85.2	82.4	83	82.3	84.4	87.9	84.2	79.2	82.4	80.3	83.3	78.8	73.2
CC(=O)O[C@@]12CO[C@@H]1C[C@H](O)[C@]3(C)[C@@H]2[C@H](OC(=O)C4=CC=CC=C4)[C@]5(O)C[C@H](OC(=O)C(O)[C@@H](NC(=O)OC(C)(C)C)C6=CC=CC=C6)C(=C(/[C@@H](O)C3=O)C5(C)C)/C (some centres undefined)	28	36.3	37.7	38	42.2	40.1	24.8	19.8	8.29	4.99	3.29	33.6	32.1	35.6	35.2	37.2	34.8	25.5	25.5	11.8	6.81	3.21	42.5	46.4	48.1	57.5	49.4	51.4	40.2	31.5	15.5	5.67	2.26
COC1=CC=C(C=C1)C2CC(=N/N2C3=CC=C(C=C3)[S+](N)([O-])=O)\C4=CC=CC=C4 (centres undefined)	95.3	91.6	102	102	99.5	108	108	83.8	63.1	4.53	2.18	101	90	94	94.4	106	89.6	99.8	67.8	42	3.73	1.01	85.6	96.2	96.6	100	95.9	85.9	91.4	65.8	35.8	4.09	1.97
COC1(C[S+]([O-])c2ccccc2)CCN(CCc2c[nH]c3ccc(F)cc23)CC1 (centres undefined)	112	105	112	114	113	115	109	96.6	102	99.6	93.2	117	116	133	148	140	99.9	78.9	78.7	115	106	97.6	104	111	114	116	109	105	103	98.4	105	99.9	85.4
CC(C)NCC(O)c1ccc(NS(C)(=O)=O)cc1 (centres undefined)	104	113	96.3	105	117	111	104	108	98	102	100	109	102	99.9	105	97.9	110	106	112	101	98.7	101	101	102	100	98.6	97	94.3	99.2	91	91	99.2	96.6
